Source: publication PMC4053474 (Bioconjugate chemistry, 2008)

Assays:
[1] = test system: Integrin αVβ6-positive H2009 cells; assay: flow cytometric analysis of doxorubicin uptake; assay type: cell-based, human; conditions: 30 µM, 2 h, flow cytometry
[2] = test system: Integrin αVβ6-positive H2009 cells; assay: cell viability assay; assay type: cell-based, human; conditions: 200 nM to 5 µM, 24 h exposure, 72 h post-incubation, CellTiter Glo
H2009 cells = conditions: ref personal communication, Drs. John D. Minna and Michael Peyton; cited from earlier work
αvβ6 = αvβ6 (Homo sapiens, UniProt P06756+P18564); assay: binding affinity for integrin αvβ6; conditions: data not shown
αvβ6, sequence (P06756 31-889 limits assumed): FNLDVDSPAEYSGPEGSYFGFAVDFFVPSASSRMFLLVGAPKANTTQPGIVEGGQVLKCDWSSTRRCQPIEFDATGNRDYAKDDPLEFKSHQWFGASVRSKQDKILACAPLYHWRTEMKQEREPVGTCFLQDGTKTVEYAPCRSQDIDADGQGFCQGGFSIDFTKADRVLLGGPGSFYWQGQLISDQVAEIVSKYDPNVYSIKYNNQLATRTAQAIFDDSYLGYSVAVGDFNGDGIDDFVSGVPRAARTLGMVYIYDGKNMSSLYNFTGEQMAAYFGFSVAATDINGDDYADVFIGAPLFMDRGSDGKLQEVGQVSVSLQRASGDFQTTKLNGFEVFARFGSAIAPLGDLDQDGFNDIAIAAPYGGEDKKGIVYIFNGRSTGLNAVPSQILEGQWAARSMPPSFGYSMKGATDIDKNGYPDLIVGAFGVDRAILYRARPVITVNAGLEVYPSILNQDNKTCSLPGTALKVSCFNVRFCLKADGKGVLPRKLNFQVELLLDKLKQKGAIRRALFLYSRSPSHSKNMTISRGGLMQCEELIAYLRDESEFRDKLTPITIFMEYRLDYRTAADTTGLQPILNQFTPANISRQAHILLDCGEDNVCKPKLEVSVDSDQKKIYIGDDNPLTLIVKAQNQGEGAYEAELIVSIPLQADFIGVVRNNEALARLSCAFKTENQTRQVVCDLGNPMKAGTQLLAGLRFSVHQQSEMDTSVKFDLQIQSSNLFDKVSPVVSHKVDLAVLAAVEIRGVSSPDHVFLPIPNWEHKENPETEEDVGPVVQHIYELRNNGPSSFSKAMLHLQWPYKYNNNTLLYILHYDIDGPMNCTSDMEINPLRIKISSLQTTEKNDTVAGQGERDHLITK
αvβ6, sequence (P06756 891-1048 partner limits assumed): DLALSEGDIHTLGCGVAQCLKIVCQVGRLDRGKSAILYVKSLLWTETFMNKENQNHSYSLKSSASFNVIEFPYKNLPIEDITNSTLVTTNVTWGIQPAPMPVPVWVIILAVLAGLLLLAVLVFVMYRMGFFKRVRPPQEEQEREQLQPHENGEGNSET
αvβ6, sequence (P18564 22-788): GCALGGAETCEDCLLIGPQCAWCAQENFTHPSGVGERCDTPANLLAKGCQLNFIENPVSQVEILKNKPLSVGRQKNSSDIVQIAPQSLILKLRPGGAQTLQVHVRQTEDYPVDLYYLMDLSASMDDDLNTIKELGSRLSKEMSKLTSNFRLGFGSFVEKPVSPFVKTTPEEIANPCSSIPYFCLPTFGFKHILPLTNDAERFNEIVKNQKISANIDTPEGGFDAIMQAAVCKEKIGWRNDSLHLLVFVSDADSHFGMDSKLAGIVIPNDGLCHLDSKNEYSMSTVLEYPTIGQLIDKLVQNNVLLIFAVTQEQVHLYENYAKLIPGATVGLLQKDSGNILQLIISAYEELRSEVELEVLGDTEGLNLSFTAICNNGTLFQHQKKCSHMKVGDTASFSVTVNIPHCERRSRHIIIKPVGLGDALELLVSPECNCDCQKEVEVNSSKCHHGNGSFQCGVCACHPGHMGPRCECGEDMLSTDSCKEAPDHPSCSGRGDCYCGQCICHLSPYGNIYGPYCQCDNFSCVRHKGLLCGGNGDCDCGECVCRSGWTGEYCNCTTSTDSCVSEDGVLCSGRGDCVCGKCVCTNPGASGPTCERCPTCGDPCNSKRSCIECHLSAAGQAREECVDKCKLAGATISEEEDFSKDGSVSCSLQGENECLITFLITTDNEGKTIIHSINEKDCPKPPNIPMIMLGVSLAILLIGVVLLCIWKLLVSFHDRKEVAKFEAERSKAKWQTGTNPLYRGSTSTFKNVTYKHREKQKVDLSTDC

## COc1cccc2c1C(=O)c1c(O)c3c(c(O)c1C2=O)C[C@@](O)(C(=O)CO)C[C@@H]3O[C@H]1C[C@H](N)[C@H](O)[C@H](C)O1 [doxorubicin, reference compound]
[1]
  internalization into H2009 compared with H1299 cells: internalizes into both cell lines equally
[2]
  pairwise comparison of viability of H2009 and H1299 cells: did not demonstrate any statistical difference

## CC(=O)O[C@H]1C(=O)[C@@]2(C)[C@H]([C@H](OC(=O)c3ccccc3)[C@]3(O)C[C@H](OC(=O)[C@H](O)[C@@H](NC(=O)c4ccccc4)c4ccccc4)C(C)=C1C3(C)C)[C@]1(OC(C)=O)CO[C@@H]1C[C@@H]2O [paclitaxel]
H2009 cells
  IC50 relative to that of doxorubicin (fold lower): 40 fold

## DALRLQGTLR [scrambled sequence peptide]
αvβ6
  binding affinity for αvβ6: no binding affinity
